Reference: patent US5183899A, “Pyrazole derivative” (Takeda Chemical Industries, Ltd., priority 1989, dated 1993)

Biological target: T1, angiotensin II receptor (Bos taurus, UniProt P25104)
T1 construct: An A II receptor membrane fraction was prepared from bovine adrenal cortex; from tissue; host or cells: bovine adrenal cortex, receptor membrane fraction
T1 sequence (P25104 1-359): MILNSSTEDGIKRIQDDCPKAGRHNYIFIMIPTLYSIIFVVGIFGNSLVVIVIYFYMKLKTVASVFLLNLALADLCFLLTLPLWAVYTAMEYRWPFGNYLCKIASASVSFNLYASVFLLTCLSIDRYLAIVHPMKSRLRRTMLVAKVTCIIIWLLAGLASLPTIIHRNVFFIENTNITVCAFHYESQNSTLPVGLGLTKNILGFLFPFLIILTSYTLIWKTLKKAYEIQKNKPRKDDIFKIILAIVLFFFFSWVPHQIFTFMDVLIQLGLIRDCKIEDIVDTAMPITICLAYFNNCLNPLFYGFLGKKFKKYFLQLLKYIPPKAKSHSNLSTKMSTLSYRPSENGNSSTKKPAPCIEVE
Assay: Inhibition of binding of angiotensin II to angiotensin receptors (125I-angiotensin II binding, receptor membrane fraction from bovine adrenal cortex)
Details: 125I-A II, room temperature, 1 hour; for inhibition at 10 µM: 1 × 10^-5 (M); for inhibition at 1 µM: 1 × 10^-6 (M)
Protocol: Inhibition of binding of angiotensin II to angiotensin receptors
An experiment of inhibition of angiotensin II (A (II) receptor binding was conducted according to the modified Douglas et al's method [Endocrinology,102, 685-695 (1978)]. An A II receptor membrane fraction was prepared from bovine adrenal cortex.
the compound of the present invention (10^-6 -10^-5 M) and ^125 I-angiotensin II (^125 I-A II) (1.85 kBq/50 μl) were added to the receptor membrane fraction and incubated at room temperature for 1 hour. Bound and free ^125 I-A II's were separated through a filter (Whatman GF/B filter), and the radioactivity of ^125 I-A II bound to the receptor was measured.

SMILES	inhibition at 10 µM [%]	inhibition at 1 µM [%]
CCCCc1cc(C(=O)OCC)nn1Cc1ccc(-c2ccccc2-c2nn[nH]n2)cc1 [compound 1]	92	75
CCCCNC(=O)c1cc(CCCC)n(Cc2ccc(-c3ccccc3-c3nn[nH]n3)cc2)n1 [compound 2]	95	80
CCCCc1cc(C(=O)NC(C)(C)C)nn1Cc1ccc(-c2ccccc2-c2nn[nH]n2)cc1 [compound 3]	94	81
CCCCc1cc(C(=O)NC2CCCCC2)nn1Cc1ccc(-c2ccccc2-c2nn[nH]n2)cc1 [compound 5]	98	93
CCCCc1cc(C(=O)NCc2ccccc2)nn1Cc1ccc(-c2ccccc2-c2nn[nH]n2)cc1 [compound 6]	95	83
CCCCc1cc(C(=O)Nc2ccccc2)nn1Cc1ccc(-c2ccccc2-c2nn[nH]n2)cc1 [compound 7]	97	91
CCCCc1cc(C(=O)NC2Cc3ccccc3C2)nn1Cc1ccc(-c2ccccc2-c2nn[nH]n2)cc1 [compound 8]	95	86
CCCCc1cc(C(=O)NOCc2ccccc2)nn1Cc1ccc(-c2ccccc2-c2nn[nH]n2)cc1 [compound 9]	96	73
CCCCc1cc(C(=O)NCC)nn1Cc1ccc(-c2ccccc2-c2nn[nH]n2)cc1 [compound 12]	97	85
CCCCc1cc(C(=O)NCCC)nn1Cc1ccc(-c2ccccc2-c2nn[nH]n2)cc1 [compound 13]	99	85
CCCCc1cc(C(N)=O)nn1Cc1ccc(-c2ccccc2-c2nn[nH]n2)cc1 [compound 14]	93	75
CCCCc1cc(C(=O)NCCOC)nn1Cc1ccc(-c2ccccc2-c2nn[nH]n2)cc1 [compound 15]	95	88
CCCCc1cc(C(=O)NC(C)C)nn1Cc1ccc(-c2ccccc2-c2nn[nH]n2)cc1 [compound 16]	95	91
CCCCc1cc(C(=O)OC(C)C)nn1Cc1ccc(-c2ccccc2-c2nn[nH]n2)cc1 [compound 17]	98	91
CCCCCc1cc(C(=O)OCC)nn1Cc1ccc(-c2ccccc2-c2nn[nH]n2)cc1 [compound 18]	88	54
CCCc1cc(C(=O)OCC)nn1Cc1ccc(-c2ccccc2-c2nn[nH]n2)cc1 [compound 19]	90	62
CCCCc1cc(C(=O)OCC(F)(F)F)nn1Cc1ccc(-c2ccccc2-c2nn[nH]n2)cc1 [compound 20]	94	66
CCCCc1cc(C(=O)OC)nn1Cc1ccc(-c2ccccc2-c2nn[nH]n2)cc1 [compound 22]	90	61
CCCCc1cc(C(=O)N2CCCC2)nn1Cc1ccc(-c2ccccc2-c2nn[nH]n2)cc1 [compound 25]	96	77
CCCCc1cc(C(=O)N2CCOCC2)nn1Cc1ccc(-c2ccccc2-c2nn[nH]n2)cc1 [compound 27]	97	92
CCCCc1cc(C(=O)N2CCN(C(c3ccccc3)c3ccccc3)CC2)nn1Cc1ccc(-c2ccccc2-c2nn[nH]n2)cc1 [compound 31]	89	38
CCCCc1cc(C(=O)N2CCC(C(c3ccccc3)c3ccccc3)CC2)nn1Cc1ccc(-c2ccccc2-c2nn[nH]n2)cc1 [compound 32]	88	32
